Assay results reported in PubChem BioAssay AID248 (DTP/NCI, 2004).
Several values for one entry are separate records, joined by “and”; a condition that tells them apart may be missing. Equal values may be shown once. Inconclusive results and toxic doses are left out. No stated cut-off is given here; in the data, active means T/C of 150% or more; inactive means T/C below 125%.

Tested on: L1210 leukemia ip in BDF1 mice, survival T/C
Test: NCI In Vivo Anticancer Drug Screen. Data for tumor model L1210 Leukemia (intraperitoneal) in B6D2F1 (BDF1) mice
Conditions: endpoint: mean survival time, higher = longer survival
In short: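 Each compound was tested against a transplantable tumor grown in mice. The endpoint was survival, with treated animals benchmarked against vehicle controls as a simple ratio.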

[1] = dose: 50.0 mg/kg/injection, schedule: Q01DX009 (ip), vehicle: Klucel (hydroxypropylcellulose) (HPC)
[2] = dose: 100.0 mg/kg/injection, schedule: Q01DX009 (ip), vehicle: Klucel (hydroxypropylcellulose) (HPC)
[3] = dose: 100.0 mg/kg/injection, schedule: Q04DX003 (ip), vehicle: Klucel (hydroxypropylcellulose) (HPC)
[4] = dose: 200.0 mg/kg/injection, schedule: Q01DX009 (ip), vehicle: Klucel (hydroxypropylcellulose) (HPC)
[5] = dose: 200.0 mg/kg/injection, schedule: Q04DX003 (ip), vehicle: Klucel (hydroxypropylcellulose) (HPC)
[6] = dose: 400.0 mg/kg/injection, schedule: Q04DX003 (ip), vehicle: Klucel (hydroxypropylcellulose) (HPC)
[7] = dose: 100.0 mg/kg/injection, schedule: Q04DX003 (ip), vehicle: saline with Tween-80
[8] = dose: 200.0 mg/kg/injection, schedule: Q04DX003 (ip), vehicle: saline with Tween-80
[9] = dose: 400.0 mg/kg/injection, schedule: Q04DX003 (ip), vehicle: saline with Tween-80
[10] = dose: 100.0 mg/kg/injection, schedule: Q01DX009 (ip), vehicle: saline with Tween-80
[11] = dose: 200.0 mg/kg/injection, schedule: Q01DX009 (ip), vehicle: saline with Tween-80
[12] = dose: 100.0 mg/kg/injection, schedule: Q04DX003 (ip), vehicle: other
[13] = dose: 200.0 mg/kg/injection, schedule: Q04DX003 (ip), vehicle: other
[14] = dose: 100.0 mg/kg/injection, schedule: Q01DX001 (ip), vehicle: saline
[15] = dose: 200.0 mg/kg/injection, schedule: Q01DX001 (ip), vehicle: saline
[16] = dose: 400.0 mg/kg/injection, schedule: Q01DX001 (ip), vehicle: saline
[17] = dose: 400.0 mg/kg/injection, schedule: Q01DX009 (ip), vehicle: Klucel (hydroxypropylcellulose) (HPC)
[18] = dose: 100.0 mg/kg/injection, schedule: Q04DX003 (ip), vehicle: saline
[19] = dose: 50.0 mg/kg/injection, schedule: Q04DX003 (ip), vehicle: saline
[20] = dose: 200.0 mg/kg/injection, schedule: Q04DX003 (ip), vehicle: saline

Measured: T/C

CC(C)=CCN1CCN=C(c2ccccc2)c2cc(Cl)ccc21
inactive: [1] 100 % of control | [2] 105 % of control | [3] 102 % of control | [4] 94 % of control | [5] 98 % of control | [6] 93 % of control

Oc1ccc(Nc2ncnc3nc[nH]c23)cc1O
inactive: [7] 101 % of control | [8] 89 % of control | [9] 100 % of control

O=C(O)c1ccc(NC(=O)c2ccc3ccccc3c2O)cc1
inactive: dose: 100.0 mg/kg/injection, schedule: Q01DX001 (ip), vehicle: saline with Tween-80 104 % of control | [10] 109 % of control | [7] 102 % of control | dose: 200.0 mg/kg/injection, schedule: Q01DX001 (ip), vehicle: saline with Tween-80 103 % of control | [11] 110 % of control | [8] 100 % of control | dose: 400.0 mg/kg/injection, schedule: Q01DX001 (ip), vehicle: saline with Tween-80 101 % of control | [9] 96 % of control

CC1(C)N=C(N)N=C(N)N1c1cccc(CCCCOc2ccccc2)c1
inactive: dose: 6.25 mg/kg/injection, schedule: Q04DX003 (ip), vehicle: saline with Tween-80 101 % of control | dose: 12.5 mg/kg/injection, schedule: Q04DX003 (ip), vehicle: saline with Tween-80 106 % of control | dose: 25.0 mg/kg/injection, schedule: Q04DX003 (ip), vehicle: saline with Tween-80 95 % of control

C=CCNc1ccc(C)cc1
inactive: dose: 50.0 mg/kg/injection, schedule: Q01DX009 (ip), vehicle: other 92 % of control | dose: 100.0 mg/kg/injection, schedule: Q01DX009 (ip), vehicle: other 104 % of control | [12] 100 % of control | [13] 109 % of control

N#C/C(=C1/C(=O)c2ccccc2-c2c1cccc2[N+](=O)[O-])c1ccccc1
inactive: dose: 75.0 mg/kg/injection, schedule: Q01DX001 (ip), vehicle: carboxymethylcellulose (CMC) 92 % of control | dose: 150.0 mg/kg/injection, schedule: Q01DX001 (ip), vehicle: carboxymethylcellulose (CMC) 94 % of control | dose: 300.0 mg/kg/injection, schedule: Q01DX001 (ip), vehicle: carboxymethylcellulose (CMC) 97 % of control

CCSCC1OC2OC(C)(C)OC2C1O (stereo not drawn)
inactive: [14] 97 % of control | [15] 111 % of control | [16] 97 % of control

COc1ccc(Cl)cc1NC(=O)Oc1ccc(NC(C)=O)cc1
inactive: [2] 96 % of control | [4] 102 % of control | [17] 98 % of control

O=C1c2ccccc2C(=O)N1CC(=O)N(C(=O)NC1CCCCC1)C1CCCCC1
inactive: dose: 100.0 mg/kg/injection, schedule: Q01DX001 (ip), vehicle: water 109 % of control | dose: 100.0 mg/kg/injection, schedule: Q01DX009 (ip), vehicle: water 103 % of control | dose: 100.0 mg/kg/injection, schedule: Q04DX003 (ip), vehicle: water 94 % of control | dose: 200.0 mg/kg/injection, schedule: Q01DX001 (ip), vehicle: water 104 % of control | dose: 200.0 mg/kg/injection, schedule: Q01DX009 (ip), vehicle: water 95 % of control | dose: 200.0 mg/kg/injection, schedule: Q04DX003 (ip), vehicle: water 96 % of control | dose: 400.0 mg/kg/injection, schedule: Q01DX001 (ip), vehicle: water 98 % of control | dose: 400.0 mg/kg/injection, schedule: Q01DX009 (ip), vehicle: water 103 % of control | dose: 400.0 mg/kg/injection, schedule: Q04DX003 (ip), vehicle: water 97 % of control

Cc1ccc(C(=O)c2ccccc2)c(C)c1
inactive: dose: 100.0 mg/kg/injection, schedule: Q01DX001 (ip), vehicle: carboxymethylcellulose (CMC) 86 % of control | dose: 400.0 mg/kg/injection, schedule: Q01DX001 (ip), vehicle: carboxymethylcellulose (CMC) 92 % of control

C=CCOCC1CO1 (stereo not drawn)
inactive: dose: 75.0 mg/kg/injection, schedule: Q01DX001 (ip), vehicle: acetone 101 % of control | dose: 150.0 mg/kg/injection, schedule: Q01DX001 (ip), vehicle: acetone 97 % of control | dose: 300.0 mg/kg/injection, schedule: Q01DX001 (ip), vehicle: acetone 105 % of control

COc1cc2c(c(Oc3ccc(C)cc3)c1)CN(C)CC2
inactive: [18] 98 % of control

Oc1nc(/N=C2/N=c3ccc(Cl)cc3=N2)[nH]c1O
inactive: [3] 98 % of control | [5] 106 % of control | [6] 98 % of control

O=C(O)CCC(NC(=O)OCc1ccccc1)C(=O)O (stereo not drawn)
inactive: [10] 100 % of control | [3] 103 % of control | [12] 98 % of control | [7] 104 % of control and 95 % of control | [11] 98 % of control | [5] 99 % of control | [13] 102 % of control | [8] 101 % of control and 92 % of control | dose: 400.0 mg/kg/injection, schedule: Q01DX009 (ip), vehicle: saline with Tween-80 98 % of control | [6] 91 % of control | dose: 400.0 mg/kg/injection, schedule: Q04DX003 (ip), vehicle: other 98 % of control | [9] 101 % of control and 104 % of control

CCCCCCCC1CCC(=O)O1 (stereo not drawn)
inactive: [19] 103 % of control | [14] 95 % of control | [18] 105 % of control | [15] 98 % of control | [20] 97 % of control | [16] 100 % of control

NNCCc1ccccc1
inactive: dose: 6.25 mg/kg/injection, schedule: Q01DX009 (ip), vehicle: saline 105 % of control | dose: 12.5 mg/kg/injection, schedule: Q01DX009 (ip), vehicle: saline 101 % of control | dose: 25.0 mg/kg/injection, schedule: Q01DX009 (ip), vehicle: saline 95 % of control | dose: 25.0 mg/kg/injection, schedule: Q04DX003 (ip), vehicle: saline 120 % of control | dose: 50.0 mg/kg/injection, schedule: Q01DX009 (ip), vehicle: saline 104 % of control | [19] 106 % of control | [18] 111 % of control

CC(N)(C(=O)O)c1ccccc1 (stereo not drawn)
inactive: [19] 96 % of control | [18] 89 % of control | [20] 102 % of control

O=C(CCNNC(=O)c1ccncc1)NCc1ccccc1
inactive: dose: 25.0 mg/kg/injection, schedule: Q01DX009 (ip), vehicle: Klucel (hydroxypropylcellulose) (HPC) 101 % of control | dose: 25.0 mg/kg/injection, schedule: Q04DX003 (ip), vehicle: Klucel (hydroxypropylcellulose) (HPC) 101 % of control | [1] 110 % of control | dose: 50.0 mg/kg/injection, schedule: Q04DX003 (ip), vehicle: Klucel (hydroxypropylcellulose) (HPC) 114 % of control | [2] 97 % of control | [3] 95 % of control | [4] 101 % of control | [5] 86 % of control | [17] 101 % of control | [6] 95 % of control

CC(NC(=O)C(C)(C)C)c1ccc(-c2ccccc2)cc1 (stereo not drawn)
inactive: dose: 100.0 mg/kg/injection, schedule: Q04DX002 (ip), vehicle: saline with Tween-80 98 % of control | dose: 200.0 mg/kg/injection, schedule: Q04DX002 (ip), vehicle: saline with Tween-80 95 % of control | dose: 400.0 mg/kg/injection, schedule: Q04DX002 (ip), vehicle: saline with Tween-80 98 % of control

CCCCn1c(=O)cc(C)c2ccccc21
inactive: dose: 100.0 mg/kg/injection, schedule: Q01DX001 (ip), vehicle: other 95 % of control | dose: 200.0 mg/kg/injection, schedule: Q01DX001 (ip), vehicle: other 92 % of control | dose: 400.0 mg/kg/injection, schedule: Q01DX001 (ip), vehicle: other 94 % of control

CCCN1CC(C(=O)OCC)C(=O)C1=O (stereo not drawn)
inactive: dose: 50.0 mg/kg/injection, schedule: Q01DX001 (ip), vehicle: saline 108 % of control | [14] 100 % of control | [15] 96 % of control | [16] 102 % of control

O=C1Nc2ccccc2C12CNCS2 (stereo not drawn)
inactive: dose: 75.0 mg/kg/injection, schedule: Q01DX001 (ip), vehicle: saline 104 % of control | dose: 150.0 mg/kg/injection, schedule: Q01DX001 (ip), vehicle: saline 98 % of control | dose: 300.0 mg/kg/injection, schedule: Q01DX001 (ip), vehicle: saline 95 % of control
